Measured values published in ChEMBL document CHEMBL1201862, “PubChem BioAssay data set” (2004).
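Five compound concentrations were applied to cells in 96-well plates for 48 hours; endpoints were derived by simple linear interpolation of the resulting dose-response curve. Here, GI50 denotes the concentration required for 50% inhibition of growth.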 Active and inactive are the calls of the source. Cut-off read from the data, not from the text of the source: active = GI50 up to about 1.1 µM and inactive = higher.

Legend:
Assay in all cases: inhibition of tumour cell growth, NCI panel, 48 h
[1] = test system: LOX IMVI
[2] = test system: UO-31
[3] = test system: NCI-H522
[4] = test system: SK-MEL-5
[5] = test system: EKVX
[6] = test system: HOP-92
[7] = test system: NCI-H460
[8] = test system: Hs-578T
[9] = test system: KM12
[10] = test system: MDA-MB-435
[11] = test system: SNB-75
[12] = test system: MDA-MB-231
[13] = test system: RXF 393
[14] = test system: RPMI-8226
[15] = test system: HCT-15
[16] = test system: PC-3
[17] = test system: NCI/ADR-RES
[18] = test system: NCI-H226
[19] = test system: A549
[20] = test system: BT-549

Structure (SMILES)	GI50 [1]	GI50 [2]	GI50 [3]	GI50 [4]	GI50 [5]	GI50 [6]	GI50 [7]	GI50 [8]	GI50 [9]	GI50 [10]	GI50 [11]	GI50 [12]	GI50 [13]	GI50 [14]	GI50 [15] [µM]	GI50 [16]	GI50 [17]	GI50 [18]	GI50 [19]	GI50 [20]
COC1(OC)CC(CO)(CNc2nc(N)nc(Cl)c2C=O)C1	18.5 µM (inactive)	60.1 µM (inactive)	1.99 µM (inactive)	> 100 µM (inactive)	22.8 µM (inactive)	14.6 µM (inactive)	85.7 µM (inactive)	39.8 µM (inactive)	49 µM (inactive)	25.8 µM (inactive)	90.4 µM (inactive)	20.8 µM (inactive)	34.1 µM (inactive)	> 100 µM (inactive)	26	24 µM (inactive)	31 µM (inactive)	93.3 µM (inactive)	59 µM (inactive)	48.5 µM (inactive)
O=C(Cc1nc2ccc(C(=O)c3ccccc3)cc2nc1O)C(=O)Nc1ccccc1[N+](=O)[O-]	67.9 µM (inactive)	40 µM (inactive)	34.4 µM (inactive)	46 µM (inactive)	89.7 µM (inactive)	65.9 µM (inactive)	53.6 µM (inactive)	47.8 µM (inactive)	24 µM (inactive)	38.9 µM (inactive)	26.2 µM (inactive)	38.1 µM (inactive)	53.8 µM (inactive)	34.1 µM (inactive)	46.3	51.1 µM (inactive)	45.1 µM (inactive)	13.8 µM (inactive)	> 100 µM (inactive)	58.9 µM (inactive)
Cc1c(C)c2c(c(N)c1C#N)C(=O)N(CCc1ccccc1)C2=O	> 100 µM (inactive)	> 100 µM (inactive)	> 100 µM (inactive)	> 100 µM (inactive)	> 100 µM (inactive)	> 100 µM (inactive)	> 100 µM (inactive)	> 100 µM (inactive)	> 100 µM (inactive)	> 100 µM (inactive)	> 100 µM (inactive)	> 100 µM (inactive)	> 100 µM (inactive)	> 100 µM (inactive)	> 100	> 100 µM (inactive)	> 100 µM (inactive)	> 100 µM (inactive)	94.8 µM (inactive)	> 100 µM (inactive)
CCCCCCCCCCCCCCCC(=O)OCC(C[As](=O)(O)O)OC(=O)CCCCCCCCCCCCCCC (stereo not given)	> 100 µM (inactive)	> 100 µM (inactive)	> 100 µM (inactive)	> 100 µM (inactive)	> 100 µM (inactive)	> 72.6 µM (inactive)	> 100 µM (inactive)	58.5 µM (inactive)	> 100 µM (inactive)	> 100 µM (inactive)	33 µM (inactive)	> 100 µM (inactive)	> 68.1 µM (inactive)	> 100 µM (inactive)	> 66.5	> 100 µM (inactive)	> 100 µM (inactive)	> 74.8 µM (inactive)	> 100 µM (inactive)	> 100 µM (inactive)
